In ChEMBL document CHEMBL1201862, “PubChem BioAssay data set” (2004):
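The compound was tested at five concentrations on cells cultured in 96-well plates, with a 48-hour exposure period. GI50: concentration for 50% inhibition of growth.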 Calls of active or inactive are those of the source. Rule as the data show it: active = GI50 up to about 1.1 µM and inactive = higher.

Key:
Assay in all cases: inhibition of tumour cell growth, NCI panel, 48 h
ACHN = system: ACHN
EKVX = system: EKVX
HCT-116 = system: HCT-116
HCT-15 = system: HCT-15
HT-29 = system: HT-29
Hs-578T = system: Hs-578T
IGROV-1 = system: IGROV-1
MDA-MB-231 = system: MDA-MB-231
NCI-H226 = system: NCI-H226
NCI-H460 = system: NCI-H460
NCI-H522 = system: NCI-H522
NCI/ADR-RES = system: NCI/ADR-RES
OVCAR-4 = system: OVCAR-4
PC-3 = system: PC-3
SF-295 = system: SF-295
SK-MEL-2 = system: SK-MEL-2
SNB-19 = system: SNB-19
T47D = system: T47D
UO-31 = system: UO-31

| SMILES | GI50 (ACHN) | GI50 (EKVX) | GI50 (HCT-116) | GI50 (HCT-15) | GI50 (HT-29) | GI50 (Hs-578T) | GI50 (IGROV-1) | GI50 (MDA-MB-231) | GI50 (NCI-H226) | GI50 (NCI-H460) | GI50 (NCI-H522) | GI50 (NCI/ADR-RES) | GI50 (OVCAR-4) | GI50 (PC-3) | GI50 (SF-295) | GI50 (SK-MEL-2) | GI50 (SNB-19) | GI50 (T47D) | GI50 (UO-31) |
| --- | --- | --- | --- | --- | --- | --- | --- | --- | --- | --- | --- | --- | --- | --- | --- | --- | --- | --- | --- |
| O=C(/C=C/c1ccccc1)c1ccccc1 [CHALCONE] | > 10 µM (inactive) | > 10 µM (inactive) | 2.01 µM (inactive) | > 10 µM | 6.07 µM (inactive) | > 10 µM (inactive) | > 10 µM (inactive) | > 10 µM (inactive) | > 10 µM (inactive) | > 9.55 µM (inactive) | > 10 µM (inactive) | > 10 µM (inactive) | > 10 µM (inactive) | > 10 µM (inactive) | > 10 µM (inactive) | > 10 µM (inactive) | > 10 µM (inactive) | > 10 µM (inactive) | > 10 µM (inactive) |
| S=C1SSC2N=CC=CC12 (stereo not given) | > 100 µM (inactive) | > 100 µM (inactive) | 92.9 µM (inactive) | 57.8 µM | > 100 µM (inactive) | > 100 µM (inactive) | 78.7 µM (inactive) | > 100 µM (inactive) | > 100 µM (inactive) | 31.4 µM (inactive) | 68.9 µM (inactive) | > 100 µM (inactive) | 16.2 µM (inactive) | 63.4 µM (inactive) | 84.9 µM (inactive) | > 100 µM (inactive) | > 100 µM (inactive) | 93.5 µM (inactive) | > 100 µM (inactive) |
| O=C1c2scnc2-c2nccc3c2c1nc1ccccc13 [KUANONIAMINE A] | 0.955 µM (active) | 2.92 µM (inactive) | 0.272 µM (active) | 0.207 µM | 2.55 µM (inactive) | 1.8 µM (inactive) | 0.774 µM (active) | 0.318 µM (active) | 1.44 µM (inactive) | 0.372 µM (active) | 0.0169 µM (active) | 0.231 µM (active) | 1.16 µM (inactive) | 0.664 µM (active) | 1.58 µM (inactive) | 1.01 µM (active) | 0.389 µM (active) | 0.215 µM (active) | 1.16 µM (inactive) |
| O=C1C=CC[C@H](/C=C/C[C@@H](O)C[C@H](O)/C=C/c2ccccc2)O1 | 14.6 µM (inactive) | 12 µM (inactive) | 5.09 µM (inactive) | 10.5 µM | 11.4 µM (inactive) | 19.3 µM (inactive) | 13.6 µM (inactive) | 10.5 µM (inactive) | 12.8 µM (inactive) | 15.3 µM (inactive) | 4.25 µM (inactive) | 19.1 µM (inactive) | 14.6 µM (inactive) | 14.5 µM (inactive) | 15.7 µM (inactive) | 12.3 µM (inactive) | 19.2 µM (inactive) | 14.3 µM (inactive) | 13.2 µM (inactive) |
| CC(Oc1ccccc1)C(=O)NNC(=O)OC(C)(C)C (stereo not given) | > 100 µM (inactive) | > 100 µM (inactive) | > 100 µM (inactive) | > 100 µM | > 100 µM (inactive) | > 100 µM (inactive) | > 100 µM (inactive) | > 100 µM (inactive) | > 100 µM (inactive) | > 100 µM (inactive) | > 100 µM (inactive) | > 100 µM (inactive) | > 100 µM (inactive) | > 100 µM (inactive) | > 100 µM (inactive) | > 100 µM (inactive) | > 100 µM (inactive) | > 100 µM (inactive) | > 100 µM (inactive) |
| O=C1CC2C(=O)C1C(C(=O)O)C2C(=O)O (stereo not given) | > 100 µM (inactive) | > 100 µM (inactive) | > 100 µM (inactive) | > 100 µM | > 100 µM (inactive) | > 100 µM (inactive) | > 100 µM (inactive) | > 100 µM (inactive) | > 100 µM (inactive) | > 100 µM (inactive) | > 100 µM (inactive) | > 100 µM (inactive) | > 100 µM (inactive) | > 100 µM (inactive) | > 100 µM (inactive) | > 100 µM (inactive) | > 100 µM (inactive) | > 100 µM (inactive) | > 100 µM (inactive) |
| C=C(O)c1ccccc1C#Cc1ccccc1C(=O)OC | > 10 µM (inactive) | > 10 µM (inactive) | > 10 µM (inactive) | > 10 µM | > 10 µM (inactive) | > 10 µM (inactive) | > 10 µM (inactive) | > 10 µM (inactive) | > 10 µM (inactive) | > 10 µM (inactive) | > 10 µM (inactive) | > 10 µM (inactive) | > 10 µM (inactive) | > 10 µM (inactive) | > 10 µM (inactive) | > 10 µM (inactive) | > 10 µM (inactive) | > 10 µM (inactive) | > 10 µM (inactive) |
| COc1ccc(N/N=C/C2=CC(C)(C)C(C#N)(C#N)C(O)=C2C#N)cc1 | 40.4 µM (inactive) | 66.5 µM (inactive) | 39 µM (inactive) | 14.1 µM | 43.1 µM (inactive) | 44.7 µM (inactive) | 46.9 µM (inactive) | 34.3 µM (inactive) | 77.8 µM (inactive) | 20.9 µM (inactive) | 37.7 µM (inactive) | 37 µM (inactive) | 50 µM (inactive) | 27.8 µM (inactive) | 36.6 µM (inactive) | 49.2 µM (inactive) | 56.6 µM (inactive) | 35.6 µM (inactive) | 20.5 µM (inactive) |
| CC(C)OP(=O)(CCCCCCCCC/C=C/c1ccc2c(c1)OCCOCCOCCOCCO2)OC(C)C | 3.48 µM (inactive) | 3.79 µM (inactive) | 3.38 µM (inactive) | 2.46 µM | 3.05 µM (inactive) | 2.45 µM (inactive) | 4.46 µM (inactive) | 2.85 µM (inactive) | 3.37 µM (inactive) | 2.61 µM (inactive) | 2.76 µM (inactive) | 2.98 µM (inactive) | 4.8 µM (inactive) | 2.84 µM (inactive) | 3.08 µM (inactive) | 2.96 µM (inactive) | 3.41 µM (inactive) | 2.79 µM (inactive) | 2.72 µM (inactive) |
| COc1ccc(/C(CC2OC(=O)c3ccccc32)=N\NC(=O)C[N+](C)(C)C)cc1 (stereo not given) | 28.2 µM (inactive) | 39.4 µM (inactive) | 22.5 µM (inactive) | 19.2 µM | 19.2 µM (inactive) | 36.7 µM (inactive) | 34.4 µM (inactive) | 57.3 µM (inactive) | 21.7 µM (inactive) | 24.6 µM (inactive) | 24.7 µM (inactive) | 21.2 µM (inactive) | 22.6 µM (inactive) | 47.8 µM (inactive) | 47.5 µM (inactive) | 23.9 µM (inactive) | 29.5 µM (inactive) | 25.8 µM (inactive) | 26.5 µM (inactive) |
| O=C(O)c1cnc2cc(OCc3ccccc3)ccc2c1O | 18.5 µM (inactive) | 22.8 µM (inactive) | 17.2 µM (inactive) | 17.8 µM | 19.2 µM (inactive) | 20 µM (inactive) | 18.3 µM (inactive) | 20.6 µM (inactive) | 18.3 µM (inactive) | 19.4 µM (inactive) | 16.5 µM (inactive) | 18.1 µM (inactive) | 16.6 µM (inactive) | 17.1 µM (inactive) | 19.3 µM (inactive) | 18.5 µM (inactive) | 17.7 µM (inactive) | 17.8 µM (inactive) | 17.3 µM (inactive) |
| OC/C=C/[C@H](OCc1ccccc1)[C@H](/C=C/CO)OCc1ccccc1 | 49.3 µM (inactive) | 47.6 µM (inactive) | 35.1 µM (inactive) | 34.8 µM | 24.3 µM (inactive) | 47.4 µM (inactive) | 42.5 µM (inactive) | 50.4 µM (inactive) | > 100 µM (inactive) | 57.8 µM (inactive) | 37.3 µM (inactive) | 32.4 µM (inactive) | 29.8 µM (inactive) | 32.3 µM (inactive) | 32.5 µM (inactive) | 37.4 µM (inactive) | 31.2 µM (inactive) | 23.7 µM (inactive) | 64.1 µM (inactive) |
| COC(=O)C1=C(O)C(C(=O)OC)[C@@]2(O)[C@@H](C(=O)OC)C(c3ccc(OC(=O)/C(=C/c4ccccc4)c4ccccc4)cc3)C[C@@H]1[C@@H]2C(=O)OC (stereo not given in full) | 19.7 µM (inactive) | 64.6 µM (inactive) | 5 µM (inactive) | 7.18 µM | 25.4 µM (inactive) | 27.7 µM (inactive) | 19 µM (inactive) | 23.9 µM (inactive) | 9.86 µM (inactive) | 5.21 µM (inactive) | 13.3 µM (inactive) | 44.2 µM (inactive) | 16.9 µM (inactive) | 32.5 µM (inactive) | 38.1 µM (inactive) | 14.9 µM (inactive) | 30 µM (inactive) | > 100 µM (inactive) | 10.9 µM (inactive) |
| COc1ccc2c(c1)CC[C@@H]1[C@@H]2CC[C@]2(C)/C(=N/OCCN3CCCCC3)CC[C@@H]12 | 8.81 µM (inactive) | 8.32 µM (inactive) | 2.38 µM (inactive) | 2.03 µM | 1.66 µM (inactive) | 6.76 µM (inactive) | 1.95 µM (inactive) | 8.41 µM (inactive) | 5.43 µM (inactive) | 2.5 µM (inactive) | 5.27 µM (inactive) | 10 µM (inactive) | 12.2 µM (inactive) | 4.74 µM (inactive) | 3.52 µM (inactive) | 6.07 µM (inactive) | 7.45 µM (inactive) | 5.46 µM (inactive) | 3.19 µM (inactive) |
| Cc1ccc(/C=C2\CN(C)CC3C2=NC(=S)NC3c2ccc(C)cc2)cc1 (stereo not given) | > 100 µM (inactive) | 9.93 µM (inactive) | 37.3 µM (inactive) | 36 µM | 27.2 µM (inactive) | > 100 µM (inactive) | 13.7 µM (inactive) | > 68.7 µM (inactive) | > 100 µM (inactive) | 41.8 µM (inactive) | 24 µM (inactive) | 30.8 µM (inactive) | 26.9 µM (inactive) | 11 µM (inactive) | 61.8 µM (inactive) | > 30.7 µM (inactive) | > 61.9 µM (inactive) | 26 µM (inactive) | 43.2 µM (inactive) |
